Tests used:
TLR7 = biological target: T1, TLR7 (Homo sapiens, UniProt Q9NYK1); assay: TLR7 human peripheral blood mononuclear cell (PBMC) cell-based assay; details: human PBMCs; 1 h with test antagonist, then TLR7 agonist GS-986 400 nM for 6 h; cytokines (IL-6 and IFNα) in supernatant; read-out: TLR-7 EC50
T1 construct: Human peripheral blood mononuclear cells (PBMCs) consist of lymphocytes, monocytes and dendritic cells that express TLR7, TLR8 and TLR9; endogenous in cells; host or cells: cryopreserved human PBMCs from healthy donors
T1 sequence (Q9NYK1 27-1049): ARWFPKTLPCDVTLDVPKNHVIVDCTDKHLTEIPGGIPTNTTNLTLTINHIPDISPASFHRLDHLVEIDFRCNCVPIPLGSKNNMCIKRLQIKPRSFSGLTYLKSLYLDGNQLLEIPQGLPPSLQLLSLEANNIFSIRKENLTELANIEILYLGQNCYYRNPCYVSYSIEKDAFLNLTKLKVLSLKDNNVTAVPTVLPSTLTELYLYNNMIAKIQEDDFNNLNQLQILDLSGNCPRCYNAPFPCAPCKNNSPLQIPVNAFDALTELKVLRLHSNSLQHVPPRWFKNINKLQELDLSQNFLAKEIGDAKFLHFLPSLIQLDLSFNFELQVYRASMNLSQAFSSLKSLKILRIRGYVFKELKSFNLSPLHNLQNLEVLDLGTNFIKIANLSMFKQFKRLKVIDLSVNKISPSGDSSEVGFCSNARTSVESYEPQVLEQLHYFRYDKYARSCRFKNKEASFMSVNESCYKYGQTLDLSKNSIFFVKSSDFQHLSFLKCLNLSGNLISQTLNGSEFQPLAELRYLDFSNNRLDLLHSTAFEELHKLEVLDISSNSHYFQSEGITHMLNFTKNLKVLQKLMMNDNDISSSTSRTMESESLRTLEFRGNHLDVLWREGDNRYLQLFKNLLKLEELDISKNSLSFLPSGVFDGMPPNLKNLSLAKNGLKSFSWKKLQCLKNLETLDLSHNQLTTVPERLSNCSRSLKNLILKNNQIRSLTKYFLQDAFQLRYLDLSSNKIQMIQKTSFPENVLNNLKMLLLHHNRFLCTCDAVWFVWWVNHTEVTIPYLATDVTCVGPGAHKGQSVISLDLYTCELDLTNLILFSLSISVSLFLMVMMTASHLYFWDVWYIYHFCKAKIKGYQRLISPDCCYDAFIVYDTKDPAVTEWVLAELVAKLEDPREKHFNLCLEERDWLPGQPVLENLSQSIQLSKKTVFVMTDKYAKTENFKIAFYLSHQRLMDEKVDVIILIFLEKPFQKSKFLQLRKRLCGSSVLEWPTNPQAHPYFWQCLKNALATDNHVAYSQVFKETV
From the text: TLR7/9 Human Peripheral Blood Mononuclear Cell (PBMC) Cell-Based Assay
Human peripheral blood mononuclear cells (PBMCs) consist of lymphocytes, monocytes and dendritic cells that express TLR7, TLR8 and TLR9. These cells respond to TLR7, TLR8 and TLR9 ligand stimulation and produce cytokines and chemokines in vitro and in vivo. Human PBMCs are therefore suitable to be used in a cell-based assay to assess the in vitro potency of a TLR 7, 8, and/or 9 antagonist.
Cryopreserved human PBMCs from healthy donors were thawed and resuspended in RPMI-1640 media with L-glutamine (Corning) supplemented with 10% Fetal Bovine Serum (Hyclone) and 1× Penicillin-Streptomycin (Corning). After counting, the cell density was adjusted to 2 million cells/ml and incubated for 1 hour at 37° C., 5% CO2 for recovery. Following the recovery, the cells were plated by adding 50 μl per well (100,000 cells) to 384-well cell culture plates (Greiner) containing 250 nl of test antagonists in 100% DMSO per well, in a 10 points dose response in quadruplicates. PBMCs were incubated in the presence of test antagonists for one hour at 37° C., 5% CO2 before being stimulated with a TLR7 or TLR9 agonist. GS-986 (Gilead Sciences) was used as the TLR7 agonist at a final concentration of 400 nM. ODN-2216 (InvivoGen) was used as the TLR9 agonist at a final concentration of 3 μM. PBMCs were incubated in the presence of the test antagonist and the TLR7 (or TLR9) agonist for an additional 6 hours at 37° C., 5% CO2. At the end of the incubation, the cell culture plates were centrifuged at 500 g for 5 min, and the cell culture supernatant was collected. The level of cytokines (IL-6 and IFNα) in the supernatant was measured by electrochemiluminescence immunoassays (Mesoscale Discovery) following manufacturer's recommended protocols. The level of cytokine measured was plotted against the test antagonist concentration and fitted to a sigmoidal function to determine the EC50, which are shown below in Table 6.

TLR8 = biological target: T2, TLR8 (Homo sapiens, UniProt Q9NR97); assay: TLR8 human peripheral blood mononuclear cell (PBMC) cell-based assay; details: human PBMCs; 1 h with antagonist, then TLR8 agonist Compound A 800 nM for 6 h; cytokines (TNFa and IL12p40) in supernatant; read-out: TLR-8 EC50
T2 construct: Human peripheral blood mononuclear cells (PBMCs) consist of lymphocytes, monocytes and dendritic cells that express TLR7, TLR8 and TLR9; endogenous in cells; host or cells: cryopreserved human PBMCs from healthy donors
T2 sequence (Q9NR97 27-1041): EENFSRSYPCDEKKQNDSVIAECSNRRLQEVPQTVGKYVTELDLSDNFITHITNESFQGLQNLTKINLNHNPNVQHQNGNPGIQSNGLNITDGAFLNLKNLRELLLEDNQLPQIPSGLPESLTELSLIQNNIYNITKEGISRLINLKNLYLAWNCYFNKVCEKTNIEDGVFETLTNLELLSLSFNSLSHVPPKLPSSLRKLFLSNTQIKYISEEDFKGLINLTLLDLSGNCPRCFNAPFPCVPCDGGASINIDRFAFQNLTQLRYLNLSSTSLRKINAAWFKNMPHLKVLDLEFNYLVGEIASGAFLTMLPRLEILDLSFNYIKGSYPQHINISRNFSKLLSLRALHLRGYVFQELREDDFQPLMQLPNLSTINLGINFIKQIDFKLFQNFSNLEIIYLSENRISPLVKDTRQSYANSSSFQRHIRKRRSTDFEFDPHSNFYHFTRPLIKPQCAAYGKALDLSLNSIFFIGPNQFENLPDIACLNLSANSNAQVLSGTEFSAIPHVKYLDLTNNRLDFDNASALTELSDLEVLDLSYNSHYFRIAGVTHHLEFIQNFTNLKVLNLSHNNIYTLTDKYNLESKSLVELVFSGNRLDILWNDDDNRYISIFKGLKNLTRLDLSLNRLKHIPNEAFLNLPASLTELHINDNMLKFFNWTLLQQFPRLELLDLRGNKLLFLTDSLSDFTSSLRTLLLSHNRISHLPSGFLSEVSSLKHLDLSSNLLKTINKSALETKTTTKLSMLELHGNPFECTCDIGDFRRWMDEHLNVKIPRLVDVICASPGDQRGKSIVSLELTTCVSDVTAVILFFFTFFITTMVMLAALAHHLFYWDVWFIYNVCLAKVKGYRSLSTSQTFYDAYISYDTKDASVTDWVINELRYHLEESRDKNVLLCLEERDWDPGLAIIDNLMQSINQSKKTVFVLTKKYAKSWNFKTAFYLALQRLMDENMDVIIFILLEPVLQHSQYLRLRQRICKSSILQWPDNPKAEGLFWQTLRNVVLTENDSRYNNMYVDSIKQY
Method: TLR8 Human Peripheral Blood Mononuclear Cell (PBMC) Cell-Based Assay
Cryopreserved human PBMCs from healthy donors were thawed and resuspended in RPMI-1640 media with L-glutamine (Corning) supplemented with 10% Fetal Bovine Serum (Hyclone) and 1× Penicillin-Streptomycin (Corning). After counting, the cell density was adjusted to 2 million cells/ml and incubated for 1 hour at 37° C., 5% CO2 for recovery. Following the recovery, the cells were plated by adding 50 μl per well (100,000 cells) to 384-well cell culture plates (Greiner) containing 250 nl of test antagonists in 100% DMSO per well, in a 10 points dose response in quadruplicates. PBMCs were incubated in the presence of antagonists for one hour at 37° C., 5% CO2 before being stimulated with TLR8 agonist. Compound A (Gilead Sciences, U.S. Pat. No. 10,285,990) was used as the TLR8 agonist at a final concentration of 800 nM. PBMCs were incubated in the presence of antagonist and the TLR8 agonist for an additional 6 hours at 37° C., 5% CO2. At the end of the incubation, the cell culture plates were centrifuged at 500 g for 5 min, and the cell culture supernatant was collected. The level of cytokines (TNFa and IL12p40) in the supernatant was measured by electrochemiluminescence immunoassays (Mesoscale Discovery) following manufacturer's recommended protocols. The level of cytokine measured was plotted against the antagonist concentration and fitted to a sigmoidal function to determine the EC50, which are shown below in Table 6.

Structure (SMILES) | EC50 (TLR7) | EC50 (TLR8)
Cc1c(C2CC3(CCN(CC(N)=O)C3)C2)sc2[nH]c(-c3cn4ncnc4c4c3CCC4)c(C(C)C)c12 (stereo not drawn) [Example 9] | 1.17 nM | 0.32 nM
Cc1c(C2CCN(C(=O)[C@@H]3COCCN3)CC2)sc2[nH]c(-c3cn4ncnc4c4c3CCC4)c(C(C)C)c12 [Example 15] | 0.29 nM | 5.26 nM
Cc1c(C23CCN(CC(N)=O)CC2C3)sc2[nH]c(-c3cn4ncnc4c4c3CCC4)c(C(C)C)c12 (stereo not drawn) [Example 10] | 0.26 nM | 15.3 nM
Cc1c(C2CCN(C(=O)C3(N4CCOCC4)CC3)CC2)sc2[nH]c(-c3cn4ncnc4c4c3CCC4)c(C(C)C)c12 [Example 20] | 4.63 nM | 22.3 nM
Cc1c(C2CCN(C(=O)[C@H]3C[C@@H](O)CN3)CC2)sc2[nH]c(-c3cn4ncnc4c4c3CCC4)c(C(C)C)c12 [Example 31] | 1.33 nM | 6.38 nM
CC(C)c1c(-c2cn3ncnc3c3c2CCC3)[nH]c2sc(C3CCN(CC(N)=O)CC3)cc12 [Example 34] | 0.58 nM | 1.57 nM
Cc1c(C2CCN(C(=O)[C@H]3C[C@H](O)CN3)CC2)sc2[nH]c(-c3cn4ncnc4c4c3CCC4)c(C(C)C)c12 [Example 32] | 1.5 nM | 11.3 nM
CC(C)c1c(-c2cn3ncnc3c3c2CCC3)[nH]c2sc(C3CCN(C(=O)[C@H]4COCCN4)CC3)cc12 [Example 33] | 2.33 nM | 7.57 nM

Results, then the compound that gave them:

EC50 (TLR7) | EC50 (TLR8) | Structure (SMILES)
2.46 nM | 96.6 nM | Cc1nc2c3c(c(-c4[nH]c5sc(C6CCN(C(=O)[C@H]7COCCN7)CC6)c(C)c5c4C(C)C)cn2n1)COC3 [Example 51, (R)-(4-(4-isopropyl-3-methyl-5-(2-methyl-7,9-dihydrofuro[3,4-c][1,2,4]triazolo[1,5-a]pyridin-6-yl)-6H-thieno[2,3-b]pyrrol-2-yl)piperidin-1-yl)(morpholin-3-yl)methanone]
4.09 nM | 135 nM | Cc1nc2c3c(c(-c4[nH]c5sc(C6CCN(CC(N)=O)CC6)c(C)c5c4C(C)C)cn2n1)COC3 [Example 44]
0.58 nM | 0.81 nM | Cc1c([C@@H]2C[C@@H]3C[C@H]2CN3CC(N)=O)sc2[nH]c(-c3cn4ncnc4c4c3CCO4)c(C(C)C)c12 [Example 38]
4.5 nM | 27.6 nM | Cc1c(C2CCN(CC(N)=O)CC2)sc2[nH]c(-c3cn4ncnc4c4c3CCO4)c(C(C)C)c12 [Example 36]
